Where a name gives a salt, the structure may show the parent alone. Read-outs that look alike come from different tables or passages of the source.
How the values were obtained:
HCT-116 cell line = experiment: Inhibition of cell growth, tetrazolium salt (MTT) assay; type: cell-based; conditions: for IC50: Homo sapiens, HCT-116, 120 h, MTT, three to five days; for HCT-116 % Inhibition at 0.25 μM: 0.25 μM compound
Method in brief: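 McCoy's 5A cultures; 4 h pre-incubation; compound dilutions in 0.5% v/v DMSO; 3–5 d, 37° C, 5% CO2; MTT 0.2 mg/mL final, 4 h; formazan dissolved in DMSO, A540; vs 0.5% DMSO vehicle.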

CDK2/Cyclin A = CDK2/Cyclin A (Homo sapiens, UniProt P24941); experiment: Inhibition of CDK2/Cyclin A Retinoblastoma Kinase Activity; type: biochemical; conditions: for Ki: apparent Ki, CDK2/proteolyzed cyclin A, Rb fragment substrate, 25 μM ATP; for CDK2 % Inhibition At 0.03 μM: Table 2
Method in brief: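 Human CDK2, baculovirus/insect-cell expressed, complexed with proteolyzed cyclin A (10 nM or 19 nM CDK2) phosphorylates an Rb fragment with 25 μM [32P/33P]ATP at pH 7.4, 30° C, for 60 or 75 minutes under initial-rate conditions. Filter-captured radioactivity is read by phosphorimager; apparent Ki from competitive-inhibition fits.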

[1] = molecular target: human CDK4 and genetically truncated (1-264) cyclin D3 (Homo sapiens, UniProt P11802); experiment: Inhibition of CDK4/Cyclin D Retinoblastoma Kinase Activity; type: biochemical; conditions: for Ki: apparent Ki, CDK4/truncated cyclin D3, Rb fragment substrate, 25 μM ATP
Method in brief: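 Read-out: 32P/33P incorporation into Rb fragment (386-928) captured on nitrocellulose, phosphorimager. Enzyme 5 nM CDK4/cyclin D3(1-264) from insect cells; ATP 25 μM, pH 7.4, 30 °C, 20 min (60 min for tight binders). Ki from competitive fits.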

[2] = first HCT-116 column (c4), read-out: HCT-116 IC50
[3] = second HCT-116 column (c5), read-out: HCT-116 IC50
[4] = 0.1 μM compound, HCT-116, Table 3
[5] = 0.1 μM compound, HCT-116, Table 4

Chain of human CDK4 and genetically truncated (1-264) cyclin D3 (P11802 whole entry, the tested form may be a part): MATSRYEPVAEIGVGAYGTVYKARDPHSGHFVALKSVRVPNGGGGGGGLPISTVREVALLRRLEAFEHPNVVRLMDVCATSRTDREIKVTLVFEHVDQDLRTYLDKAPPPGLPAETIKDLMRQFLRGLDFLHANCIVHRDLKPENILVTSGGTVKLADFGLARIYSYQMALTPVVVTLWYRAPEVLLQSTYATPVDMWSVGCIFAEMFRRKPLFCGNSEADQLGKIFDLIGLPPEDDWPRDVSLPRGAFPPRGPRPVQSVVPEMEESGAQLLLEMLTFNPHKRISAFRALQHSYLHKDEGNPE
Chain of human CDK4 and genetically truncated (1-264) cyclin D3 (P30281 1-264 partner): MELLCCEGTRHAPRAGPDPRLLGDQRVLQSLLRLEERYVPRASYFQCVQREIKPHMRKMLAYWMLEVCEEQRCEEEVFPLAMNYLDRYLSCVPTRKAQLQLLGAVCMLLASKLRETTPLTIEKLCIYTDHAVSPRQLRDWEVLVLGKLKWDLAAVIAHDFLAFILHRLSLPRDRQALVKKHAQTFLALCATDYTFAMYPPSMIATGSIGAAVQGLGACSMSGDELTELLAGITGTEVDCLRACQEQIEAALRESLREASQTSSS

Compound: Nc1nc(NC2CCN(S(=O)(=O)CCCN3CCCC3)CC2)sc1C(=O)c1c(F)cccc1F [Example K8, 1-(4-Amino-2-{1-[3-(pyrrolidin-1-yl)propane-1 sulfonyl]-piperidin-4-ylamino}-thiazol-5-yl)-1-(2,6-difluoro-phenyl)-methanone.]
- IC50 (HCT-116 cell line; [2]): 310 nM
- IC50 (HCT-116 cell line; [3]): 2900 nM
- Ki (CDK2/Cyclin A): 1.8 nM
- Ki [1]: 2.7 nM

Compound: CC(=O)Nc1nc(C)c(S(=O)(=O)N2CCC(Nc3nc(N)c(C(=O)c4c(F)cccc4F)s3)CC2)s1 [Example P4]
- HCT-116 % Inhibition at 0.1 μM (HCT-116 cell line; [4]): 18%
- HCT-116 % Inhibition at 0.25 μM (HCT-116 cell line; HCT-116, Table 3): 24%
- CDK2 % Inhibition at 0.03 μM (CDK2/Cyclin A; 0.03 μM compound, Table 3): 15%
- CDK4 % Inhibition at 0.03 μM ([1]; 0.03 μM compound, Table 3): 32%

Compound: Nc1nc(NC2CCN(S(=O)(=O)CCc3ccncc3)CC2)sc1C(=O)c1c(F)cccc1F [Example F27, 1-{4-Amino-2-[1-(2-pyridin-4-yl-ethanesulfonyl)-piperidin-4-ylamino]-thiazol-5-yl}-1-(2,6-difluoro-phenyl)-methanone]
- IC50 (HCT-116 cell line; [2]): 1000 nM
- IC50 (HCT-116 cell line; [3]): 5000 nM
- Ki (CDK2/Cyclin A): 32 nM
- Ki [1]: 6.8 nM

Compound: Nc1nc(NC2CCN(C(=O)Oc3ccc([N+](=O)[O-])cc3)CC2)sc1C(=O)c1c(F)cccc1F [Example C16, 4-[4-Amino-5-(2,6-difluoro-benzoyl)-thiazol-2-ylamino]-piperidine-1-carboxylic acid 4-nitro-phenyl ester]
- IC50 (HCT-116 cell line; read-out: HCT-116 IC50, first HCT-116 column (c4)): 130 nM
- IC50 (HCT-116 cell line; read-out: HCT-116 IC50, second HCT-116 column (c5)): 400 nM
- Ki (CDK2/Cyclin A): 18 nM
- Ki [1]: 7.5 nM

Compound: COc1ccc(C(=O)N2CCC(Nc3nc(N)c(C(=O)c4c(F)cccc4F)s3)CC2)cc1 [Example C2, {4-Amino-2-[1-(4-methoxy-benzoyl)-piperidin-4-ylamino]-thiazol-5-yl}-(2,6-difluoro-phenyl)-methanone]
- IC50 (HCT-116 cell line; [2]): 770 nM
- IC50 (HCT-116 cell line; [3]): 1900 nM
- Ki (CDK2/Cyclin A): 65 nM
- Ki [1]: 9.6 nM

Compound: CC1CCC(NCCS(=O)(=O)N2CCC(Nc3nc(N)c(C(=O)c4c(F)cccc4F)s3)CC2)CC1 (mixture of isomers) [Example K40, (4-Amino-2-{1-[2-(4(cis/trans)-methyl-cyclohexylamino)-ethanesulfonyl]-piperidin-4-ylamino}-thiazol-5-yl)-(2,6-difluoro-phenyl)-methanone]
- IC50 (HCT-116 cell line; [2]): 66 nM
- IC50 (HCT-116 cell line; [3]): 280 nM
- Ki (CDK2/Cyclin A): 0.51 nM
- Ki [1]: 2.1 nM

Compound: CC1(C(=O)N2CCC(Nc3nc(N)c(C(=O)c4c(F)cccc4F)s3)CC2)CCCCC1 [Example R99]
- HCT-116 % Inhibition at 0.1 μM (HCT-116 cell line; HCT-116 cells, at 0.1 μM): 5%
- HCT-116 5 Inhibition at 0.25 μM (HCT-116 cell line; HCT-116 cells): 49
- CDK2 % Inhibition at 0.03 μM (CDK2/Cyclin A; at 0.03 μM): −5%
- CDK4 % Inhibition at 0.03 μM ([1]; at 0.03 μM): −4%

Compound: Nc1nc(NC2CCN(S(=O)(=O)c3ccc(-c4ccccn4)s3)CC2)sc1C(=O)c1c(F)cccc1F [Example P45]
- HCT-116 % Inhibition at 0.1 μM (HCT-116 cell line; [4]): 14%
- HCT-116 % Inhibition at 0.25 μM (HCT-116 cell line; HCT-116, Table 3): 27%
- CDK2 % Inhibition at 0.03 μM (CDK2/Cyclin A; 0.03 μM compound, Table 3): 65%
- CDK4 % Inhibition at 0.03 μM ([1]; 0.03 μM compound, Table 3): 82%

Compound: CN(C)c1ccc(C(=O)N2CCC(Nc3nc(N)c(C(=O)c4c(F)cccc4F)s3)CC2)cc1 [Example R79]
- HCT-116 % Inhibition at 0.1 μM (HCT-116 cell line; HCT-116 cells, at 0.1 μM): 0%
- HCT-116 5 Inhibition at 0.25 μM (HCT-116 cell line; HCT-116 cells): 47
- CDK2 % Inhibition at 0.03 μM (CDK2/Cyclin A; at 0.03 μM): 14%
- CDK4 % Inhibition at 0.03 μM ([1]; at 0.03 μM): 16%

Compound: CN1CCC(C(=O)N2CCC(Nc3nc(N)c(C(=O)c4c(F)cccc4F)s3)CC2)CC1 [Example D1, 1-(4-Amino-2-{1-[1-(1-methyl-piperidin-4-yl)-methanoyl]-piperidin-4-ylamino}-thiazol-5-yl)-1-(2,6-difluoro-phenyl)-methanone]
- IC50 (HCT-116 cell line; [2]): > 5000 nM
- Ki (CDK2/Cyclin A): 460 nM
- Ki [1]: 130 nM

Compound: Nc1nc(NC2CCN(S(=O)(=O)c3ccc(Oc4ccc(I)cc4)cc3)CC2)sc1C(=O)c1c(F)cccc1F [Example P86]
- HCT-116 % Inhibition at 0.1 μM (HCT-116 cell line; [4]): 7%
- HCT-116 % Inhibition at 0.25 μM (HCT-116 cell line; HCT-116, Table 3): 26%
- CDK2 % Inhibition at 0.03 μM (CDK2/Cyclin A; 0.03 μM compound, Table 3): 38%
- CDK4 % Inhibition at 0.03 μM ([1]; 0.03 μM compound, Table 3): 51%

Compound: Nc1nc(NC2CCN(C(=O)c3c(F)cc(F)cc3F)CC2)sc1C(=O)c1c(F)cccc1F [Example R53]
- HCT-116 % Inhibition at 0.1 μM (HCT-116 cell line; HCT-116 cells, at 0.1 μM): 0%
- HCT-116 5 Inhibition at 0.25 μM (HCT-116 cell line; HCT-116 cells): 30
- CDK2 % Inhibition at 0.03 μM (CDK2/Cyclin A; at 0.03 μM): 24%
- CDK4 % Inhibition at 0.03 μM ([1]; at 0.03 μM): 32%

Compound: CC1CCC(C(C)C)C(OC(=O)N2CCC(Nc3nc(N)c(C(=O)c4c(F)cccc4F)s3)CC2)C1 (stereo not drawn) [Example R86]
- HCT-116 % Inhibition at 0.1 μM (HCT-116 cell line; HCT-116 cells, at 0.1 μM): 0%
- HCT-116 5 Inhibition at 0.25 μM (HCT-116 cell line; HCT-116 cells): 34
- CDK2 % Inhibition at 0.03 μM (CDK2/Cyclin A; at 0.03 μM): 9%
- CDK4 % Inhibition at 0.03 μM ([1]; at 0.03 μM): 9%

Compound: Nc1nc(NC2CCN(C(=O)Nc3ccc(F)cc3)CC2)sc1C(=O)c1c(F)cccc1F [Example O19]
- HCT-116 % Inhibition at 0.25 μM (HCT-116 cell line; HCT-116, Table 2): 7%
- CDK2 % Inhibition At 0.03 μM (CDK2/Cyclin A; 0.03 μM compound): 31%
- CDK4 % Inhibition at 0.03 μM ([1]; 0.03 μM compound, Table 2): 9%

Compound: Nc1nc(NC2CCN(S(N)(=O)=O)CC2)sc1C(=O)c1c(F)cccc1F [Example E4, 4-[4-Amino-5-(2,6-difluoro-benzoyl)-thiazol-2-ylamino]-piperidine-1-sulfonic acid amide]
- IC50 (HCT-116 cell line; [2]): 570 nM
- IC50 (HCT-116 cell line; [3]): 1200 nM
- Ki (CDK2/Cyclin A): 2.7 nM
- Ki [1]: 14 nM

Compound: Nc1nc(NC2CCN(C(=O)c3cnc(Cl)c(Cl)c3)CC2)sc1C(=O)c1c(F)cccc1F [Example R30]
- HCT-116 % Inhibition at 0.1 μM (HCT-116 cell line; HCT-116 cells, at 0.1 μM): 13%
- HCT-116 5 Inhibition at 0.25 μM (HCT-116 cell line; HCT-116 cells): 43
- CDK2 % Inhibition at 0.03 μM (CDK2/Cyclin A; at 0.03 μM): 31%
- CDK4 % Inhibition at 0.03 μM ([1]; at 0.03 μM): 63%

Compound: Nc1nc(NC2CCN(S(=O)(=O)CCn3cccc3)CC2)sc1C(=O)c1c(F)cccc1F [Example K34, {4-Amino-2-[1-(2-pyrrol-1-yl-ethanesulfonyl)-piperidin-4-ylamino]-thiazol-5-yl}-(2,6-difluoro-phenyl)-methanone Trifluoroacetic Acid Salt.]
- IC50 (HCT-116 cell line; [2]): 280 nM
- IC50 (HCT-116 cell line; [3]): 1200 nM
- Ki (CDK2/Cyclin A): 6 nM
- Ki [1]: 5.4 nM

Compound: Nc1nc(NC2CCN(C(=O)OCC3c4ccccc4-c4ccccc43)CC2)sc1C(=O)c1c(F)cccc1F [Example Q82]
- HCT-116 % Inhibition at 0.1 μM (HCT-116 cell line; [5]): 0%
- HCT-116 % Inhibition at 0.25 μM (HCT-116 cell line; HCT-116, Table 4): 28%
- CDK2 % Inhibition at 0.03 μM (CDK2/Cyclin A; 0.03 μM compound, Table 4): −12%
- CDK4 % Inhibition at 0.03 μM ([1]; 0.03 μM compound, Table 4): 15%

Compound: Cc1ccc(S(=O)(=O)CC(=O)N2CCC(Nc3nc(N)c(C(=O)c4c(F)cccc4F)s3)CC2)cc1 [Example R65]
- HCT-116 % Inhibition at 0.1 μM (HCT-116 cell line; HCT-116 cells, at 0.1 μM): 3%
- HCT-116 5 Inhibition at 0.25 μM (HCT-116 cell line; HCT-116 cells): 31
- CDK2 % Inhibition at 0.03 μM (CDK2/Cyclin A; at 0.03 μM): 9%
- CDK4 % Inhibition at 0.03 μM ([1]; at 0.03 μM): 24%

Compound: COc1ccc(OC)c(CC(=O)N2CCC(Nc3nc(N)c(C(=O)c4c(F)cccc4F)s3)CC2)c1 [Example Q78]
- HCT-116 % Inhibition at 0.1 μM (HCT-116 cell line; [5]): 0.43%
- HCT-116 % Inhibition at 0.25 μM (HCT-116 cell line; HCT-116, Table 4): 37%
- CDK2 % Inhibition at 0.03 μM (CDK2/Cyclin A; 0.03 μM compound, Table 4): 39%
- CDK4 % Inhibition at 0.03 μM ([1]; 0.03 μM compound, Table 4): 46%

Compound: Nc1nc(NC2CCN(C(=O)C(Cl)(c3ccccc3)c3ccccc3)CC2)sc1C(=O)c1c(F)cccc1F [Example Q51]
- HCT-116 % Inhibition at 0.1 μM (HCT-116 cell line; [5]): 0%
- HCT-116 % Inhibition at 0.25 μM (HCT-116 cell line; HCT-116, Table 4): 34%
- CDK2 % Inhibition at 0.03 μM (CDK2/Cyclin A; 0.03 μM compound, Table 4): 4%
- CDK4 % Inhibition at 0.03 μM ([1]; 0.03 μM compound, Table 4): 22%

Compound: Nc1nc(NC2CCN(C(=O)/C=C/c3ccccc3)CC2)sc1C(=O)c1c(F)cccc1F [Example Q45]
- HCT-116 % Inhibition at 0.1 μM (HCT-116 cell line; [5]): 0%
- HCT-116 % Inhibition at 0.25 μM (HCT-116 cell line; HCT-116, Table 4): 31%
- CDK2 % Inhibition at 0.03 μM (CDK2/Cyclin A; 0.03 μM compound, Table 4): 21%
- CDK4 % Inhibition at 0.03 μM ([1]; 0.03 μM compound, Table 4): 47%

Compound: COC(=O)c1cc(NC(=O)N2CCC(Nc3nc(N)c(C(=O)c4c(F)cccc4F)s3)CC2)cc(C(=O)OC)c1 [Example O59]
- HCT-116 % Inhibition at 0.25 μM (HCT-116 cell line; HCT-116, Table 2): 32%
- CDK2 % Inhibition At 0.03 μM (CDK2/Cyclin A; 0.03 μM compound): 28%
- CDK4 % Inhibition at 0.03 μM ([1]; 0.03 μM compound, Table 2): 7%

Compound: Nc1nc(NC2CCN(C(=O)c3ccc(I)cc3)CC2)sc1C(=O)c1c(F)cccc1F [Example C1, {4-Amino-2-[1-(4-iodo-benzoyl)-piperidin-4-ylamino]-thiazol-5-yl}-(2,6-difluoro-phenyl)-methanone]
- IC50 (HCT-116 cell line; [2]): 1200 nM
- IC50 (HCT-116 cell line; [3]): 2300 nM
- Ki (CDK2/Cyclin A): 68 nM
- Ki [1]: 11 nM
